Source: patent US6710048B2, “Pyrazine derivatives as modulators of tyrosine kinases” (Ortho-McNeil Pharmaceutical, Inc., priority 2000, dated 2004)

Assays:
Format in all cases: cell-based
[1] = system: HeLa cervical adenocarcinoma; assay: Cell proliferation assay (14C-thymidine incorporation), HeLa; conditions: Homo sapiens, read-out: Inhibition of cell proliferation IC50
Description: (§1) The ability of a test compound to inhibit the proliferation of cell growth was determined by measuring incorporation of ^14C-labelled thymidine into newly synthesized DNA within the cells. This method was used on cell lines derived from carcinomas originating from several tissues such as HeLa cervical adenocarcinoma (American Type Culture Collection (ATCC), Virginia, Cat. #CCL-2), A375 malignant melanoma (ATCC CRL-1619), SK-OV-3 ovarian adenocarcinoma (ATCC HTB-77) HCT-116 colon carcinoma (CCL-247) and PC-3 prostate adenocarcinoma (ATCC CRL-1435). The method was also used on primary cells such as HUVEC endothelial cells (ATCC CRL-1730). In this way the effect of a compound on cell growth of cells with many different phenotypes can be determined. Cells were trypsinized and counted and 3000-8000 cells were added to each well of a 96-well CytoStar tissue culture treated scintillating microplate (Amersham #RPNQ0160) in complete medium in a volume of 100 μl. Cells were incubated for 24 hours in complete medium at 37° C. in an atmosphere containing 5% CO2.
(§2) Next, 1 μl of test compound in 100% DMSO was added to the wells of the plate. DMSO only was added to control wells. Cells were incubated for 24 more hours in complete medium at 37° C. in an atmosphere containing 5% CO2. Methyl ^14C-thymidine 56 mCi/mmol (NEN #NEC568 or Amersham #CFA532) was diluted in complete medium and 0.2 μCi/well was added to each well of the CytoStar plate in a volume of 20 μl. The plate was incubated for 24 hours at 37° C. plus 5% CO2 in drug plus ^14C-thymidine. The contents of the plate were discarded into a ^14C radioactive waste container by inverting the plate and the plate was washed twice with 200 μl PBS. 200 μl of PBS is then added to each well. The top of the plate was sealed with a transparent plate sealer and a white plate backing sealer (Packard #6005199) was applied to the bottom of the plate. The degree of Methyl ^14C-thymidine incorporation was quantified on a Packard Top Count.

[2] = system: HCT-116 colon carcinoma; assay: Cell proliferation assay (14C-thymidine incorporation), HCT-116; conditions: Homo sapiens, read-out: Inhibition of cell proliferation IC50
Description: as §1, §2

[3] = system: rat aortic ring; assay: Rat aortic ring assay (vascular sprouting); conditions: 192 h; rat aortic ring in fibrin gel, analyzed on day 8; read-out: Inhibition of Vascular Sprouting (IC50μM)
Description: The rat aortic ring assay is a rapid in vitro assay that measures new capillary growth in an environment that closely approximates the in vivo conditions of the extracellular matrix. The assay was performed as described (Nicosia, R F and Ottinetti, A. Growth of new microvessels in serum-free matrix culture of rat aorta. Lab Invest., 63: 115-122, 1990). Thoracic aortas were removed from 1 to 2-month old male Sprague-Dawley rats and transferred to a culture dish containing serum-free MCDB 131 medium (Clonetics). Extraneous tissue was removed and the aorta was sectioned into rings approximately 1 mm long and rinsed 8-10 times in serum-free medium. A solution of sterile 1.5% agarose (Type VI-A, Sigma, St. Louis, Mo.) was added to the wells of a 6-well plate. The wells were filled with clotting fibrinogen solution and an aortic ring was transferred into the well positioned with the lumen oriented horizontally in the center of the fibrin gel solution. The fibrinogen solution was prepared in MCDB 131 medium with bovine fibrinogen at 3 mg/ml. Clotting was initiated by adding 20 μl of a 50 NIH units/ml bovine thrombin solution and the fibrin gel generally formed within 30 seconds. The fibrinolytic inhibitor amino-n-caproic acid was added to the culture medium at 300 µg/ml (microgram per milliliter) for the first four days of the assay and at 50 μg/ml from day 5 to day 8. Once the fibrin gel solution solidified, 5 ml of serum-free MCDB 131 media containing 100 μg/ml penicillin, 100 μg/ml streptomycin and 0.25 μg/ml amphotericin B was added to each well. Explants were incubated at 37° C. with 5% CO2 for 8 days. Medium was replaced every 2-3 days and the assay was analyzed on day 8. Inhibition of vascular sprouting was measured by adding test compounds diluted in DMSO.

[4] = system: PC-3 prostate adenocarcinoma; assay: Cell proliferation assay (14C-thymidine incorporation), PC-3; conditions: Homo sapiens, read-out: Inhibition of cell proliferation IC50
Description: as §1, §2

[5] = system: MDA-MB-231; assay: Cell proliferation assay (14C-thymidine incorporation), MDA-MB-231; conditions: Homo sapiens, read-out: Inhibition of cell proliferation IC50
Description: as §1, §2

[6] = system: SK-OV-3 ovarian adenocarcinoma; assay: Cell proliferation assay (14C-thymidine incorporation), SK-OV-3; conditions: Homo sapiens, read-out: Inhibition of cell proliferation IC50
Description: as §1, §2

IC50 [1]	IC50 [2]	IC50 [3]	IC50 [4]	IC50 [5]	IC50 [6]	SMILES
4.56 µM	8.35 µM	0.099 µM	11.3 µM	3.26 µM	3 µM	OCCCNc1cncc(-c2cncc(Nc3cccc(Cl)c3)n2)c1 [Cmd 4, 3-[[5-[6-[(3-chlorophenyl)amino]pyrazinyl]-3-pyridinyl]amino]-1-propanol]
86.4 µM	23.5 µM	0.83 µM	67.6 µM	27.6 µM	14.6 µM	OCCCCNc1cncc(-c2cncc(Nc3cccc(Cl)c3)n2)c1 [Cmd 32, 4-[[5-[6-[(3-chlorophenyl)amino]pyrazinyl]-3-pyridinyl]amino]-1-butanol]

SMILES	IC50 [1]	IC50 [2]	IC50 [3]	IC50 [4]	IC50 [5]	IC50 [6]
CN(C)CCCNc1cncc(-c2cncc(Nc3cccc(Cl)c3)n2)c1 [Cmd 35, N^1-[5-[6-[(3-chlorophenyl)amino]pyrazinyl]-3-pyridinyl]-N^3,N^3-dimethyl-1,3-propanediamine]	> 100 µM	> 100 µM	> 1 µM	> 100 µM	98.3 µM	19.3 µM
